Laboratory results: patent publication US20240293558A1, “KRAS INHIBITOR CONJUGATES” (Erasca, Inc., priority 2021, published 2024)
Read-outs that look alike come from different tables or passages of the source.

Key:
[1] = target: T1, KRAS (WT) (Homo sapiens, UniProt P01116); assay: In-vitro RAS-RAF binding assay (RRB), HTRF/FRET; format: biochemical; details: Table 2, average of multiple runs of each compound
T1 construct: Biotinylated KRAS protein amino acids 1-169 (produced at Erasca); made in house
T1 sequence (P01116 1-169 isoform P01116-2): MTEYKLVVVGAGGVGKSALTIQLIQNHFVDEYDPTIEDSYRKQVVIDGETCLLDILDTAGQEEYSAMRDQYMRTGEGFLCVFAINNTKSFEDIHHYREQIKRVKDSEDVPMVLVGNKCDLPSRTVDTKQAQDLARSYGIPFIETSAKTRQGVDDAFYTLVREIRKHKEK
Procedure: (§1) Biotinylated KRAS protein amino acids 1-169 (produced at […]) is labeled with streptavidin-terbium (lanthanide cryptate donor fluorophore) in assay buffer (50 mM HEPES, pH 7.5, 100 mM NaCl, 1 mM MgCl2, 1 mM DTT) at a final concentration of 30 nM. In a separate reaction mixture, 30 nM cRAF (RBD) (Abcam, Cambridge MA) is labeled with anti-GST d2 (acceptor fluorophore). Labeling reactions are incubated for 1 hour at room temperature. […] Following the compound incubation, SOS1 catalytic domain (produced at […]) and GTPgS are added to the reaction to initiate nucleotide exchange (60 minutes exchange reaction). Once in the GTP state KRAS will bind to cRAF. No binding will occur if KRAS remains in the GDP state. Compounds may block nucleotide exchange or may create a steric obstruction to cRAF-KRAS interaction by binding to the RAS effector site. […] A portion of this mixture is transferred to a white 384-well plate (20 uL per well in duplicate) and read on an HTRF compatible plate reader (ClarioSTAR). Fluorescent resonance energy transfer (FRET) is measured at equilibrium. FRET signal will be high if KRAS-cRAF binding occurs. FRET signal will be low if KRAS-cRAF binding is inhibited by the test compound. Table 2 represents the average of multiple runs of each compound.

[2] = target: KRAS G12D (Homo sapiens, UniProt P01116, G12D); assay: In-vitro RAS-RAF binding assay (RRB), HTRF/FRET; format: biochemical; parameters: Biotinylated KRAS protein amino acids 1-169 (produced at Erasca); made in house; details: Table 2, average of multiple runs of each compound
Chain of KRAS G12D (P01116 1-169 isoform P01116-2 G12D): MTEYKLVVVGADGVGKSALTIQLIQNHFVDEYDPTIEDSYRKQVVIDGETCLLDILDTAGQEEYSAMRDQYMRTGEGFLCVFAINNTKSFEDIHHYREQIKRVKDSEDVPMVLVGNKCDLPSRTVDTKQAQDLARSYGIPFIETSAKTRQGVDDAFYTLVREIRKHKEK
Procedure: as §1

[3] = read-out: Inhibition of RAS-RAF Binding (in-vitro) KRAS (WT) IC50
[4] = read-out: Inhibition of RAS-RAF Binding (in-vitro) KRAS (G12D) IC50

Structure (SMILES)	IC50 [1, 3] [nM]	IC50 [2, 4] [nM]	IC50 ([1]; Inhibition of RAS-RAF Binding (in-vitro) KRAS (WT) IC50 (nM)) [nM]	IC50 ([2]; Inhibition of RAS-RAF Binding (in-vitro) KRAS (G12D) IC50 (nM)) [nM]
C#Cc1c(F)ccc2cc(O)cc(-c3ncc4c(N5CC6CCC(C5)N6)nc(OC[C@@H]5CCCN5CCCOCCCC(=O)N[C@H](C(=O)N5C[C@H](O)C[C@H]5C(=O)N[C@@H](C)c5ccc(-c6c(F)cccc6F)cc5)C(C)(C)C)nc4c3F)c12 [Example 34, (2S,4R)-1-((2S)-2-(4-(3-((2S)-2-(((4-(3,8-diazabicyclo[3.2.1]octan-3-yl)-7-(8-ethynyl-7-fluoro-3-hydroxynaphthalen-1-yl)-8-fluoropyrido[4,3-d]pyrimidin-2-yl)oxy)methyl)pyrrolidin-1-yl)propoxy)butanamido)-3,3-dimethylbutanoyl)-N—((S)-1-(2′,6′-difluoro-[1,1′-biphenyl]-4-yl)ethyl)-4-hydroxypyrrolidine-2-carboxamide]	63.4	9.91	–	–
C#Cc1c(F)ccc2cc(O)cc(-c3ncc4c(N5CC6CCC(C5)N6)nc(OCCN5CCC6(CC5)CN(c5cc([C@H](C(=O)N7C[C@H](O)C[C@H]7C(=O)N[C@@H](C)c7ccc(-c8c(F)cc(F)cc8F)cc7)C(C)C)on5)C6)nc4c3F)c12 [Example 36, (2S,4R)-1-((2R)-2-(3-(7-(2-((4-(3,8-diazabicyclo[3.2.1]octan-3-yl)-7-(8-ethynyl-7-fluoro-3-hydroxynaphthalen-1-yl)-8-fluoropyrido[4,3-d]pyrimidin-2-yl)oxy)ethyl)-2,7-diazaspiro[3.5]nonan-2-yl)isoxazol-5-yl)-3-methylbutanoyl)-4-hydroxy-N—((S)-1-(2′,4′,6′-trifluoro-[1,1′-biphenyl]-4-yl)ethyl)pyrrolidine-2-carboxamide]	1070	9.85	–	–
C[C@H](NC(=O)[C@@H]1C[C@@H](O)CN1C(=O)[C@@H](NC(=O)CCOCCCN1CCC[C@H]1COc1nc(N2CC3CCC(C2)N3)c2cc(Cl)c(-c3ccc(F)c4sc(N)c(C#N)c34)c(F)c2n1)C(C)(C)C)c1ccc(-c2c(F)cc(F)cc2F)cc1 [Example 37, (2S,4R)-1-((2S)-2-(3-(3-((2S)-2-(((7-(2-amino-3-cyano-7-fluorobenzo[b]thiophen-4-yl)-4-(3,8-diazabicyclo[3.2.1]octan-3-yl)-6-chloro-8-fluoroquinazolin-2-yl)oxy)methyl)pyrrolidin-1-yl)propoxy)propanamido)-3,3-dimethylbutanoyl)-4-hydroxy-N—((S)-1-(2′,4′,6′-trifluoro-[1,1′-biphenyl]-4-yl)ethyl)pyrrolidine-2-carboxamide]	275	19.4	–	–
C#Cc1c(F)ccc2cc(O)cc(-c3ncc4c(N5CC6CCC(C5)N6)nc(OC[C@@H]5CCCN5CCCOCCC(=O)N[C@H](C(=O)N5C[C@H](O)C[C@H]5C(=O)N[C@@H](C)c5ccc(-c6ccccc6C#N)cc5)C(C)(C)C)nc4c3F)c12 [Example 40, (2S,4R)-1-((2S)-2-(3-(3-((2S)-2-(((4-(3,8-diazabicyclo[3.2.1]octan-3-yl)-7-(8-ethynyl-7-fluoro-3-hydroxynaphthalen-1-yl)-8-fluoropyrido[4,3-d]pyrimidin-2-yl)oxy)methyl)pyrrolidin-1-yl)propoxy)propanamido)-3,3-dimethylbutanoyl)-N-((S)-1-(2′-cyano-[1,1′-biphenyl]-4-yl)ethyl)-4-hydroxypyrrolidine-2-carboxamide]	26.5	8.88	–	–
C#Cc1c(F)ccc2cc(O)cc(-c3ncc4c(N5CC6CCC(C5)N6)nc(OC[C@@H]5CCCN5CCCOCCC(=O)N[C@H](C(=O)N5C[C@H](O)C[C@H]5C(=O)N[C@@H](C)c5ccc(-c6c(C)cccc6C)cc5)C(C)(C)C)nc4c3F)c12 [Example 41, (2S,4R)-1-((2S)-2-(3-(3-((2S)-2-(((4-(3,8-diazabicyclo[3.2.1]octan-3-yl)-7-(8-ethynyl-7-fluoro-3-hydroxynaphthalen-1-yl)-8-fluoropyrido[4,3-d]pyrimidin-2-yl)oxy)methyl)pyrrolidin-1-yl)propoxy)propanamido)-3,3-dimethylbutanoyl)-N-((S)-1-(2′,6′-dimethyl-[1,1′-biphenyl]-4-yl)ethyl)-4-hydroxypyrrolidine-2-carboxamide]	53.4	9.4	–	–
C#Cc1c(F)ccc2cc(O)cc(-c3ncc4c(N5CC6CCC(C5)N6)nc(OC[C@@H]5CCCN5CCCOCCC(=O)N[C@H](C(=O)N5C[C@H](O)C[C@H]5C(=O)N[C@@H](C)c5ccc(-c6c(F)cccc6Cl)cc5)C(C)(C)C)nc4c3F)c12 [Example 42, (2S,4R)-1-((2S)-2-(3-(3-((2S)-2-(((4-(3,8-diazabicyclo[3.2.1]octan-3-yl)-7-(8-ethynyl-7-fluoro-3-hydroxynaphthalen-1-yl)-8-fluoropyrido[4,3-d]pyrimidin-2-yl)oxy)methyl)pyrrolidin-1-yl)propoxy)propanamido)-3,3-dimethylbutanoyl)-N-((S)-1-(2′-chloro-6′-fluoro-[1,1′-biphenyl]-4-yl)ethyl)-4-hydroxypyrrolidine-2-carboxamide]	24.9	7.78	–	–
C#Cc1c(F)ccc2cc(O)cc(-c3ncc4c(N5CC6CCC(C5)N6)nc(OC[C@@H]5CCCN5CCCOCCC(=O)N[C@H](C(=O)N5C[C@H](O)C[C@H]5C(=O)N[C@@H](C)c5ccc(-c6c(F)cccc6C(F)(F)F)cc5)C(C)(C)C)nc4c3F)c12 [Example 43, (2S,4R)-1-((2S)-2-(3-(3-((2S)-2-(((4-(3,8-diazabicyclo[3.2.1]octan-3-yl)-7-(8-ethynyl-7-fluoro-3-hydroxynaphthalen-1-yl)-8-fluoropyrido[4,3-d]pyrimidin-2-yl)oxy)methyl)pyrrolidin-1-yl)propoxy)propanamido)-3,3-dimethylbutanoyl)-N-((S)-1-(2′-fluoro-6′-(trifluoromethyl)-[1,1′-biphenyl]-4-yl)ethyl)-4-hydroxypyrrolidine-2-carboxamide]	38.3	7.68	–	–
C#Cc1c(F)ccc2cc(O)cc(-c3ncc4c(N5CC6CCC(C5)N6)nc(OC[C@@H]5CCCN5CCCOCCC(=O)N[C@H](C(=O)N5C[C@H](O)C[C@H]5C(=O)N[C@@H](C)c5ccc(-c6c(F)ccc(F)c6F)cc5)C(C)(C)C)nc4c3F)c12 [Example 44, (2S,4R)-1-((2S)-2-(3-(3-((2S)-2-(((4-(3,8-diazabicyclo[3.2.1]octan-3-yl)-7-(8-ethynyl-7-fluoro-3-hydroxynaphthalen-1-yl)-8-fluoropyrido[4,3-d]pyrimidin-2-yl)oxy)methyl)pyrrolidin-1-yl)propoxy)propanamido)-3,3-dimethylbutanoyl)-4-hydroxy-N-((S)-1-(2′,3′,6′-trifluoro-[1,1′-biphenyl]-4-yl)ethyl)pyrrolidine-2-carboxamide]	34.3	8.92	–	–
C#Cc1c(F)ccc2cc(O)cc(-c3ncc4c(N5CC6CCC(C5)N6)nc(OC[C@@H]5CCCN5CCCOCCC(=O)N[C@H](C(=O)N5C[C@H](O)C[C@H]5C(=O)N[C@@H](C)c5ccc(-c6c(Cl)cccc6Cl)cc5)C(C)(C)C)nc4c3F)c12 [Example 45]	44.9	8.97	–	–
C#Cc1c(F)ccc2cc(O)cc(-c3ncc4c(N5CC6CCC(C5)N6)nc(OC[C@@H]5CCCN5CCCOCCC(=O)N[C@H](C(=O)N5C[C@H](O)C[C@H]5C(=O)N[C@@H](C)c5ccc(N6CCC[C@H]6C(N)=O)cc5)C(C)(C)C)nc4c3F)c12 [Example 46, (2S,4R)-1-((2S)-2-(3-(3-((2S)-2-(((4-(3,8-diazabicyclo[3.2.1]octan-3-yl)-7-(8-ethynyl-7-fluoro-3-hydroxynaphthalen-1-yl)-8-fluoropyrido[4,3-d]pyrimidin-2-yl)oxy)methyl)pyrrolidin-1-yl)propoxy)propanamido)-3,3-dimethylbutanoyl)-N-((S)-1-(4-((S)-2-carbamoylpyrrolidin-1-yl)phenyl)ethyl)-4-hydroxypyrrolidine-2-carboxamide]	–	–	21.4	5.87
C#Cc1c(F)ccc2cc(O)cc(-c3ncc4c(N5CC6CCC(C5)N6)nc(OC[C@@H]5CCCN5CCCOCCC(=O)N[C@H](C(=O)N5C[C@H](O)C[C@H]5C(=O)N[C@@H](C)c5ccc(-c6c(C)ccnc6C)cc5)C(C)(C)C)nc4c3F)c12 [Example 47, (2S,4R)-1-((2S)-2-(3-(3-((2S)-2-(((4-(3,8-diazabicyclo[3.2.1]octan-3-yl)-7-(8-ethynyl-7-fluoro-3-hydroxynaphthalen-1-yl)-8-fluoropyrido[4,3-d]pyrimidin-2-yl)oxy)methyl)pyrrolidin-1-yl)propoxy)propanamido)-3,3-dimethylbutanoyl)-N-((S)-1-(4-(2,4-dimethylpyridin-3-yl)phenyl)ethyl)-4-hydroxypyrrolidine-2-carboxamide]	22.2	7.67	–	–
